Measurements taken from ChEMBL document CHEMBL1201862, “PubChem BioAssay data set” (2004).
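Method: 48-hour compound exposure of cells in 96-well plates, five concentrations, linear interpolation of endpoints. Abbreviation: GI50, concentration required for 50% inhibition of growth.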 The source made the active and inactive calls. Rule as the data show it: active = GI50 up to about 1.1 µM and inactive = higher.

Experiments:
Test in all cases: inhibition of tumour cell growth, NCI panel, 48 h
M14 = system: M14
SN12C = system: SN12C
SK-MEL-2 = system: SK-MEL-2
EKVX = system: EKVX
NCI-H460 = system: NCI-H460
SF-295 = system: SF-295
NCI-H226 = system: NCI-H226
UO-31 = system: UO-31
TK-10 = system: TK-10
HCC 2998 = system: HCC 2998
COLO 205 = system: COLO 205
CAKI-1 = system: CAKI-1
SF-268 = system: SF-268
HCT-116 = system: HCT-116
SK-OV-3 = system: SK-OV-3
RPMI-8226 = system: RPMI-8226
HOP-92 = system: HOP-92
K562 = system: K562
SK-MEL-28 = system: SK-MEL-28
MCF7 = system: MCF7

Measured: GI50

CN(C)C(=O)OC1C(=O)N(C)c2ccc(Cl)cc2C2(c3ccccc3)N1C2(Cl)Cl (centres undefined)
inactive: M14 > 100 µM | SN12C 59.3 µM | SK-MEL-2 > 100 µM | EKVX 44.4 µM | NCI-H460 > 100 µM | SF-295 77.1 µM | NCI-H226 38.7 µM | UO-31 49.2 µM | TK-10 56.5 µM | HCC 2998 > 100 µM | COLO 205 > 100 µM | CAKI-1 > 100 µM | SF-268 > 100 µM | HCT-116 62.7 µM | SK-OV-3 82.8 µM | RPMI-8226 46.5 µM | HOP-92 18.7 µM | K562 56.6 µM | SK-MEL-28 > 100 µM

CCc1cc(=O)n(/C(C)=C/c2ccccc2)n1C
inactive: M14 > 100 µM | SN12C > 100 µM | SK-MEL-2 > 100 µM | EKVX > 100 µM | NCI-H460 > 100 µM | SF-295 > 100 µM | NCI-H226 > 100 µM | UO-31 > 100 µM | TK-10 > 100 µM | MCF7 > 100 µM | HCC 2998 > 100 µM | COLO 205 > 100 µM | CAKI-1 > 100 µM | SF-268 > 100 µM | HCT-116 > 100 µM | SK-OV-3 > 100 µM | RPMI-8226 > 100 µM | HOP-92 > 100 µM | K562 > 100 µM | SK-MEL-28 > 100 µM
